Source: patent US8987274B2, “Macrocycles that increase p53 activity and the uses thereof” (Merck Sharp & Dohme Corp, priority 2011, dated 2015)
Like-named read-outs stand apart in the source and are kept apart here.

Tests used:
SJSA = assay: Cell Viability Assay (CellTiter-Glo, ATP quantitation); format: cell-based; settings: second value of the cell (SJSA cell viability, e.g. 72 hours), read-out: FP/ SJSA IC50 (nM): SJSA IC50
Description: Additionally, compounds were tested for activity at the HDM2 protein using the Cell Viability Assay, which measures the number of viable cells in culture after treatment with the inventive compound for a certain period of time e.g. 72 hours based on quantitation of the ATP present (Cell Viability. IC50). [CellTiter-Glo® Luminescent Cell Viability Assay from Promega].

HDM2 protein = HDM2 protein (Homo sapiens, UniProt Q00987); assay: fluorescence polarization screening assay (FP IC50); format: binding; settings: first value of the cell (FP), read-out: FP/ SJSA IC50 (nM): FP IC50
Chain of HDM2 protein (Q00987 whole entry): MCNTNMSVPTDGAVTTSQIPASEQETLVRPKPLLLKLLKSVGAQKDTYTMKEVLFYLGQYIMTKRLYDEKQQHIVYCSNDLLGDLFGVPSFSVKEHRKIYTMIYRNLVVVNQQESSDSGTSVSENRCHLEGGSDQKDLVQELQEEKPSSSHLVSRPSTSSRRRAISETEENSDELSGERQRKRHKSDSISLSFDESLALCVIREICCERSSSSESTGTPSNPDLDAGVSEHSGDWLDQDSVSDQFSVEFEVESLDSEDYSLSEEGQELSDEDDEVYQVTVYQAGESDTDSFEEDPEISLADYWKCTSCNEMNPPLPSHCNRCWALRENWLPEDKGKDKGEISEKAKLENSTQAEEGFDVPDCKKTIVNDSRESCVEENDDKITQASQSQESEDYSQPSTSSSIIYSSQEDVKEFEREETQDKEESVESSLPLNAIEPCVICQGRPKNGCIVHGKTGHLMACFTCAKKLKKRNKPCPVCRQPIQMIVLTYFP
Description: The compounds were evaluated to determine activity at the HDM2 protein by known methods such as the fluorescence polarization screening assay that measures the inhibitory concentration that achieves 50% of maximal activity (FP IC50) and the dissociation constant for inhibitor binding (FP Ki). [Zhang et al., J. Analytical Biochemistry 331: 138-146 (2004)].

For `O=C1c2c(C(F)(F)F)ccnc2OCCCCCC[C@H]2N1CCC[C@@]2(Oc1csc(C(F)(F)F)c1)C(=O)N1CCN(c2ccccc2OCCO)CC1` [Compound 5, 1-[[(11aR)- 7,8,9,10,11,11a,12,13,14,15- DECAHYDRO-17-OXO-1- (TRIFLUOROMETHYL)- 12-[[5- (TRIFLUOROMETHYL)-3- THIENYL]OXY]-6H,17H- DIPYDRIDO[1,2-e:2′,3′-b][1,5] OXAAZACYCLODODECIN- 12(S)-YL]CARBONYL]-4- [2-(2-HYDROXYETHOXY) PHENYL]PIPERAZINE.], which IC50 (SJSA; class symbol) is on record?
Its IC50 is 1000 to 3000 nM.

And the IC50 (HDM2 protein; class symbol)?
The IC50 was 1 to 100 nM.

Which IC50 (HDM2 protein; class symbol) does the source give for `O=C1c2c(C(F)(F)F)ccnc2OCCCC[C@H]2N1CCC[C@@]2(Oc1csc(C(F)(F)F)c1)C(=O)N1CCN(c2ccccc2OCCO)CC1` [Compound 9, 1-[2-(2- HYDROXYETHOXY) PHENYL]-4-[[(9aR)- 7,8,9,9a,10,11,12,13- OCTAHYDRO-15-OXO-1- (TRIFLUOROMETHYL)- 10(S)-[[5- (TRIFLUOROMETHYL)- 3-THIENYL]OXY]-6H,15H- DIPYRIDO[1,2-e:2′,3′-b][1,5] OXAZECIN-10-YL] CARBONYL]PIPERAZINE.] here?
The IC50 was 1000 to 3000 nM.

For `COCCOc1ccccc1N1CCN(C(=O)[C@]2(Oc3csc(C(F)(F)F)c3)CCCN3C(=O)c4c(C(F)(F)F)ccnc4OCC/C=C/C[C@@H]32)CC1` [Compound 1, 1-[2-(2- METHOXYETHOXY) PHENYL]-4-[[(10aR)- 6,7,10,10a,11,12,13,14- OCTAHYDRO-16- OXO-1- (TRIFLUOROMETHYL)- 11(S)-[[5- (TRIFLUOROMETHYL)- 3-THIENYL]OXY]-16H- DIPYRIDO[1,2-e:2′3′-b][1,5] OXOAAZACYCLOUNDECIN- 11-YL]CARBONYL] PIPERAZINE.], which IC50 (SJSA; class symbol) is on record?
Its IC50 is 101 to 500 nM.

And the IC50 (HDM2 protein; class symbol)?
The IC50 was 1 to 100 nM.

With `O=C1c2c(C(F)(F)F)ccnc2OCC/C=C/C[C@H]2N1CCC[C@@]2(Oc1csc(C(F)(F)F)c1)C(=O)N1CCN(c2ccccc2OCCO)CC1` [Compound 2, 1-[2-(2- HYDROXYETHOXY) PHENYL]-4-[[(10aR)- 6,7,10,10a,11,12,13,14- OCTAHYDRO-16- OXO-1- (TRIFLUOROMETHYL)- 11(S)-[[5- (TRIFLUOROMETHYL)-3- THIENYL]OXY]-16H- PYRIDO[1,2-e:2′,3′-b][1,5] OXAAZACYCLOUNDECIN- 11-YL]CARBONYL] PIPERAZINE.] as the compound, how does the IC50 (SJSA; class symbol) read?
The IC50 was 501 to 1000 nM.

And the IC50 (HDM2 protein; class symbol)?
Its IC50 is 1 to 100 nM.

Which results are given for `COCCOc1ccccc1N1CCN(C(=O)[C@]2(Oc3csc(C(F)(F)F)c3)CCCN3C(=O)c4c(C(F)(F)F)ccnc4OCCCC/C=C/C[C@@H]32)CC1` [Compound 3, 1-[[(12aR)- 6,7,8,9,12,12a,13,14,15,16- DECAHYDRO-18-OXO-1- (TRIFLUOROMETHYL)- 13(S)-[[5- (TRIFLUOROMETHYL)-3- THIENYL]OXY]-18H- DIPYRIDO[1,2-e:2′,3′-b][1,5] OXAAZACYCLOTRIDECIN- 13-YL]CARBONYL]-4- [2-(2-METHOXYETHOXY) PHENYL]PIPERAZINE.]?
IC50 (SJSA; class symbol): 1000 to 3000 nM; IC50 (HDM2 protein; class symbol): 1 to 100 nM

Which results are given for `N#CC1(c2ccccc2OCCCC2(C(=O)O)CCC2)CCN(C(=O)[C@]2(Oc3csc(C(F)(F)F)c3)CCCN3C(=O)c4c(C(F)(F)F)ccnc4OCCCCCC[C@@H]32)CC1` [Compound 13, 1-[3-[2-[4-CYANO-1- [[(11a)-7,8,9,10,11,11a,12,13, 14,15-DECAHYDRO-17- OXO-1- (TRIFLUOROMETHYL)- 12(S)-[[5- (TRIFLUOROMETHYL)-3- THIENYL]OXY]-6H,17H- DIPYRIDO[1,2-e:2′,3′-b][1,5] OXAAZACYCLODODECIN- 12YL]CARBONYL]-4- PIPERIDINYL]PHENOXY] PROPYL]CYCLOBUTANE- CARBOXYLIC ACID.]?
IC50 (SJSA; class symbol): 101 to 500 nM; IC50 (HDM2 protein; class symbol): 1 to 100 nM

With `O=C1c2c(C(F)(F)F)ccnc2OCCCC/C=C\C[C@H]2N1CCC[C@@]2(Oc1csc(C(F)(F)F)c1)C(=O)N1CCN(c2ccccc2OCCO)CC1` [Compound 6, 1-[[(12aR)- 6,7,8,9,12,12a,13,14,15,16- DECAHYDRO-18-OXO-1- (TRIFLUOROMETHYL)- 13-[[5- (TRIFLUOROMETHYL)-3- THIENYL]OXY]-18H- DIPYDRIDO[1,2-e:2′,3′-b][1,5] OXAAZACYCLOTRIDECIN- 13(S)-YL]CARBONYL]-4- [2-(2-HYDROXYETHOXY) PHENYL]PIPERAZINE.] as the compound, how does the IC50 (SJSA; number) read?
Its IC50 is 642 nM.

What about the IC50 (HDM2 protein; number) of the same compound?
The IC50 was 20 nM.

Which results are given for `O=C(O)CCCOc1ccccc1N1CCN(C(=O)[C@]2(Oc3csc(C(F)(F)F)c3)CCCN3C(=O)c4c(C(F)(F)F)ccnc4OCCC/C=C\C[C@@H]32)CC1` [Compound 8, 4-[2-[4-[[(11aR)- 7,8,11,11a,12,13,14,15- OCTAHYDRO-17-OXO-1- (TRIFLUOROMETHYL)- 12(S)-[[5- (TRIFLUOROMETHYL)-3- THIENYL]OXY]-6H,17H- DIPYRIDO[1,2-e:2′,3′-b][1,5] OXAAZACYCLODODECIN- 12-YL]CARBONYL]-1- PIPERAZINYL]PHENOXY] BUTANOIC ACID.]?
IC50 (SJSA; class symbol): 101 to 500 nM; IC50 (HDM2 protein; class symbol): 1 to 100 nM

How did the IC50 (HDM2 protein; class symbol) turn out when `O=C1c2c(C(F)(F)F)ccnc2OCCCCCCC[C@H]2N1CCC[C@@]2(Oc1csc(C(F)(F)F)c1)C(=O)N1CCN(c2ccccc2OCCO)CC1` [Compound 7, 1-[[(12aR)-6,7,8,9,10,11,12,12a, 13,14,15,16-DODECAHYDRO- 18-OXO-1- (TRIFLUOROMETHYL)- 13(S)-[[5- (TRIFLUOROMETHYL)-3- THIENYL]OXY]-18H- DIPYRIDO[1,2-e:2′,3′-b][1,5] OXAAZACYCLOTRIDECIN- 13-YL]CARBONYL]-4- [2-(2- HYDROXYETHOXY) PHENYL]PIPERAZINE.] was run?
Its IC50 is 1 to 100 nM.

Which IC50 (SJSA; class symbol) does the source give for `O=C1c2c(C(F)(F)F)ccnc2OCCC/C=C\C[C@H]2N1CCC[C@@]2(Oc1csc(C(F)(F)F)c1)C(=O)N1CCN(c2ccccc2OCCO)CC1` [Compound 4, 1-[2-(2- HYDROXYETHOXY) PHENYL]-4-[[(11aR)- 7,8,11,11a,12,13,14,15- OCTAHYDRO-17-OXO-1- (TRIFLUOROMETHYL)- 12(S)-[[5- (TRIFLUOROMETHYL)-3- THIENYL]OXY]-6H,17H- DIPYRIDO[1,2-e:2′,3′-b][1,5] OXAAZACYCLODODECIN- 12-YL]CARBONYL] PIPERAZINE.] here?
Its IC50 is 501 to 1000 nM.

And the IC50 (HDM2 protein; class symbol)?
Its IC50 is 1 to 100 nM.
